Data: ChEMBL document CHEMBL4765487, “From a Designer Drug to the Discovery of Selective Cannabinoid Type 2 Receptor Agonists with Favorable Pharmacokinetic Profiles for the Treatment of Systemic Sclerosis” (J Med Chem, 2021)
Calls of active or inactive are those of the source. No cut-off for these calls is given here.

Tests used:
[1] = AUC (0 to infinity) in BALB/c mouse at 1 mg/kg, iv measured during 0.083 to 24 hrs post dose by LC-MS/MS analysis; type: ADME, organism-based; parameters: route intravenous, time lower 0.083 hrs, dose 1 mg/kg, time upper 24 hrs; conditions: in vivo
Cannabinoid receptor 1 [2] = target: T1, Cannabinoid receptor 1 (Homo sapiens, UniProt P21554); test: Agonist activity at human CB1 receptor expressing CHO cells co-expressing Galpha16 by calcium mobilization assay; type: functional, cell-based
T1 sequence (P21554 whole entry): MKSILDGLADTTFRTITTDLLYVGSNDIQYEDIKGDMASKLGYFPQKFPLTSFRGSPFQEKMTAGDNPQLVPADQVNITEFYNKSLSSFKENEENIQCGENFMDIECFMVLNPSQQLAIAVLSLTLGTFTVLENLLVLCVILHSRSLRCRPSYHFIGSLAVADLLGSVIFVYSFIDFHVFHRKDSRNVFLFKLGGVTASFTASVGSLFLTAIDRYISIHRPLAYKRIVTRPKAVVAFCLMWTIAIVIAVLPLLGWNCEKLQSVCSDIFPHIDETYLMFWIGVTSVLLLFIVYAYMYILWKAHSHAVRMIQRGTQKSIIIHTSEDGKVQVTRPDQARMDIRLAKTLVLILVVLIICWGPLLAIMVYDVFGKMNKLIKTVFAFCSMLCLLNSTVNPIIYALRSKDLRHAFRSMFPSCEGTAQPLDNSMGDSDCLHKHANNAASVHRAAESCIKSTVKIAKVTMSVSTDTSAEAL

[3] = Toxicity in BALB/c mouse model of BLM-induced systemic sclerosis assessed as effect on body weight at 1 to 5 mg/kg, sc dosed once daily for 4 weeks; type: organism-based; conditions: in vivo, 672 h, dose 1-5 mg/kg
Cannabinoid receptor 1 [4] = target: T1, Cannabinoid receptor 1; test: Agonist activity at human CB1 receptor expressing CHO cells co-expressing Galpha16 at 10 uM by calcium mobilization assay; type: functional, cell-based; conditions: filed as agonist
Cannabinoid receptor 2 [5] = target: T2, Cannabinoid receptor 2 (Homo sapiens, UniProt P34972); test: Agonist activity at human CB2 receptor expressed in CHO cells assessed as increase in ERK1/2 Thr202/Tyr204 phosphorylation at 0.1 to 10 uM incubated for 15 mins by Western blot analysis; type: cell-based; conditions: filed as agonist, dose 0.1-10 µM
T2 sequence (P34972 whole entry): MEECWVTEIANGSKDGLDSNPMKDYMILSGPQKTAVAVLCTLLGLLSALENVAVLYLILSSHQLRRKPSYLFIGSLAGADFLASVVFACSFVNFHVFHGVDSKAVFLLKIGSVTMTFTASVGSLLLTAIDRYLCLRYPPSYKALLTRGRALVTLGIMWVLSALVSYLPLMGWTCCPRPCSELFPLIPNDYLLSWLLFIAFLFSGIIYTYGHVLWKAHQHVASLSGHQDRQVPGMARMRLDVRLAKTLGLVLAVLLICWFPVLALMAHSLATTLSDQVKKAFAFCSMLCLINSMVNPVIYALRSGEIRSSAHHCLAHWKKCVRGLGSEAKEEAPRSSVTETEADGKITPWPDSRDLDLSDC

Mus musculus = test: Antifibrotic activity in BALB/c mouse model of BLM-induced systemic sclerosis assessed as reduction in Col1alpha mRNA expression at 1 to 5 mg/kg, sc dosed once daily for 4 weeks by quantitative real-time PCR analysis; type: functional, organism-based; conditions: dose 1-5 mg/kg
in vitro [6] = conditions: human, liver
Cannabinoid receptor 2 [7] = target: T2, Cannabinoid receptor 2; test: Agonist activity at human CB2 receptor expressing CHO cells co-expressing Galpha16 by calcium mobilization assay; type: functional, cell-based
CHO = test: Effect on ERK1/2 Thr202/Tyr204 phosphorylation in CHO cells at 0.1 to 10 uM incubated for 15 mins by Western blot analysis; type: functional, cell-based; conditions: Cricetulus griseus, dose 0.1-10 µM
[8] = Half life in BALB/c mouse at 1 mg/kg, iv measured during 0.083 to 24 hrs post dose by LC-MS/MS analysis; type: ADME, organism-based; conditions: in vivo, time 0.083-24 hrs
[9] = Clearance in BALB/c mouse at 1 mg/kg, iv measured during 0.083 to 24 hrs post dose by LC-MS/MS analysis; type: ADME, organism-based; conditions: in vivo, time 0.083-24 hrs
Cannabinoid receptor 2 [10] = target: T2, Cannabinoid receptor 2; test: Agonist activity at human CB2 receptor expressing CHO cells co-expressing Galpha16 in presence of CB2 antagonist AM630 by calcium mobilization assay; type: functional, cell-based
in vitro [11] = conditions: human, liver microsomes
Description: Half life in human liver microsomes at 1 uM in presence of NADPH by LC-MS/MS analysis

in vitro [12] = conditions: human, liver microsomes; remark: listed apart in the source
Description: Stability in human liver microsomes assessed as parent compound remaining at 1 uM incubated for 60 mins in presence of NADPH by LC-MS/MS analysis

[13] = Half life in BALB/c mouse at 5 mg/kg, po measured during 0.083 to 24 hrs post dose by LC-MS/MS analysis; type: ADME, organism-based; conditions: in vivo, time 0.083-24 hrs

CC(C)(CO)NC(=O)c1cc(C(C)(C)C)n(-c2ccc(C(F)(F)F)cn2)n1
AUC(0-inf) [1]: 422 ng·h/mL | EC50 (Cannabinoid receptor 1 [2]): 1840 nM | Activity [3]: Non-Toxic | Activity (Cannabinoid receptor 1 [4]): Active | Activity (Cannabinoid receptor 2 [5]): Active | Activity (Mus musculus): Active | CLint scaled at 1 µM (in vitro [6]): 11.1 mL/min/kg | EC50 (Cannabinoid receptor 2 [7]): 15.2 nM | Activity (CHO): inactive | half-life [8]: 1.32 h | clearance [9]: 40 mL/min/kg | Activity (Cannabinoid receptor 2 [10]): inactive | half-life at 1 µM (in vitro [11]): 1.88 h | remaining at 1 h, 1 µM (in vitro [12]): 64% | half-life [13]: 2.18 h
